According to BindingDB's records for patent US9108978 (Monash University, 2015):

Target: T1, Bifunctional ligase/repressor BirA (Staphylococcus aureus, UniProt A0A3A5LBF0)
T1 sequence (A0A3A5LBF0 whole entry): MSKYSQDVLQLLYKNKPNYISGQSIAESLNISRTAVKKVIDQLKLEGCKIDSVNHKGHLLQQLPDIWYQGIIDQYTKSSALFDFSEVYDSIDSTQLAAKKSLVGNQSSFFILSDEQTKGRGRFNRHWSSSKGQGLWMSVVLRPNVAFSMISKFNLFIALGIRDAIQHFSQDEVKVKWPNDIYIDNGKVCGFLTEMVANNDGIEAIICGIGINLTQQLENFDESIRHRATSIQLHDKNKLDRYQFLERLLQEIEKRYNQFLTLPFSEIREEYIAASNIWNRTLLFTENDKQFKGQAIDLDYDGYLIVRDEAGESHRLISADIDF
Assay: Enzyme Inhibition Assay
Conditions: pH 8; 37 °C
Description: The reaction was initiated by the addition of BPL to a final concentration of 4 nM. After 20 minutes at 37 C., 4 uL aliquots of the reaction were spotted onto Whatman paper pre-treated with biotin and trichloroacetic acid. The filters were washed twice with 10% v/v ice-cold trichloroacetic acid and once with ethanol before air-drying. Quantitation of protein-bound radiolabelled biotin was performed by liquid scintillation. One unit of enzyme activity was defined by the amount of BPL required to incorporate 1 nmol of biotin per minute. The IC50 value of each compound was determined.

## Nc1ncnc2c1ncn2[C@@H]1O[C@H](COP(=O)(O)OCCCCC[C@@H]2SC[C@@H]3NC(=O)N[C@@H]32)[C@@H](O)[C@H]1O [US9108978, 2.02]
  IC50: 203 nM
  Ki: 30 nM
